Reference: PMC9403976, “Elucidating the path to Plasmodium prolyl-tRNA synthetase inhibitors that overcome halofuginone resistance” (Nature Communications, 2022)
Several values for one entry are separate records, joined by “and”; a condition that tells them apart may be missing. Identical values can stand only once.

How the values were obtained:
[1] = tested on: P. falciparum Dd2-2D4; details: halofuginone pressure; cited from earlier work
[2] = tested on: halofuginone-induced P. falciparum (elevated proline homeostasis); details: within five generations (10 days); cited from earlier work
[3] = tested on: HFGR-I P. falciparum (elevated proline homeostasis and PfcProRS^L482H); details: HFGR-I vs wild-type; cited from earlier work
[4] = tested on: luciferase-expressing P. berghei ANKA sporozoites; experiment: P. berghei liver stage assay in HuH7 cells (luciferase, Bright-Glo); format: cell-based, Plasmodium berghei; details: for Parasite Load, dose-response point: single replicates
Experimental: (§1) HuH7 cells (Sigma, Cat#: 01042712, Lot:18H009) were cultured in DMEM + L-Glutamine (Gibco) supplemented with 10% (v/v) heat-inactivated FBS (Sigma) and 1% (v/v) antibiotic/antimycotic (Sigma). Hepatocyte cultures were maintained in a standard tissue culture incubator at 37 °C. Anopheles mosquitoes infected with luciferase-expressing P. berghei ANKA sporozoites were obtained from the Sporocore at the University of Georgia. Liver stage P. berghei assays were completed as previously described. Briefly, 4000 HuH7 cells were seeded into 384-well plates (Corning) 1 day prior to infection. Compounds (0–50 µM) were added in triplicate to wells before infection with 4000 P. berghei sporozoites. […] Relative fluorescence and luminescence signal intensities were normalized to the negative control, 1% DMSO. EC50 values were determined using PRISM (V. 8.4.3–9.1.0, GraphPad) through fitting data to a dose-response curve.

[5] = tested on: HuH7 cells; experiment: HuH7 host hepatocyte viability (CellTiter-Fluor); format: cell-based, human; details: for HuH7 Growth, dose-response point: single replicates
Experimental: as §1, with “infection.” for “infection. Compounds (0–50 µM) were added in triplicate to wells before infection with 4000 P. berghei sporozoites.”

[6] = tested on: P. falciparum Dd2-2D4; experiment: NCP26 resistance selection under intermittent drug pressure; format: cell-based, Plasmodium falciparum; details: 10^9 parasites
Experimental: In short, parasites were treated with 4x EC50 NCP26 until no parasites were detected by giemsa staining microscopy. […] This cycle was repeated for ~50 generations (~100 days), corresponding to 5–6 cycles of drug pressure.

Q: Which results are given for `O=C(CC1NCCCC1O)Cn1cnc2cc(Br)c(Cl)cc2c1=O` (centres unmarked) [Halofuginone]?
A: generations until resistant parasites arise [1]: < 5 generations; tolerance of halofuginone-induced bulk cultures [2]: 10–20 fold; fold less sensitive (HFGR-I parasites) [3]: ~ 400 fold

Q: For `O=C(NC1Cc2ccccc2C1)c1nccnc1NC(=O)N1CCCCC1` [NCP26], which “Parasite Load, dose-response point” value ([4]; Log[inhibitor] (M) -5.602) is on record?
A: Its value is 4.50E-01 and 4.96E-01 and 3.82E-01.

Q: And the “Parasite Load, dose-response point” value ([4]; Log[inhibitor] (M) -6.000)?
A: The value was 6.73E-01 and 1.77E+00 and 8.83E-01.

Q: What about the “Parasite Load, dose-response point” value ([4]; Log[inhibitor] (M) -6.301) of the same compound?
A: Its value is 2.58E+00 and 1.62E+00 and 1.38E+00.

Q: And the “Parasite Load, dose-response point” value ([4]; Log[inhibitor] (M) -6.602)?
A: Its value is 2.09E+01 and 4.21E+01 and 3.50E+01.

Q: And the “Parasite Load, dose-response point” value ([4]; Log[inhibitor] (M) -7.602)?
A: The value was 1.02E+02 and 9.26E+01 and 8.31E+01.

Q: What about the “Parasite Load, dose-response point” value ([4]; Log[inhibitor] (M) -8.602) of the same compound?
A: The value was 9.21E+01 and 5.24E+01 and 5.53E+01.

Q: And the “Parasite Load, dose-response point” value ([4]; Log[inhibitor] (M) -9.602)?
A: Its value is 7.79E+01 and 6.82E+01 and 1.12E+02.

Q: And the “Parasite Load, dose-response point” value ([4]; Log[inhibitor] (M) -9.903)?
A: The value was 5.64E+01 and 9.94E+01 and 8.54E+01.

Q: What about the EC50 ([4]; Plasmodium berghei, Huh-7, HuH7 cells infected with sporozoites, ~44 hpi) of the same compound?
A: The EC50 was 232 nM.

Q: What about the EC50 ([5]; Homo sapiens, Huh-7, HuH7 cell viability, ~44 hpi) of the same compound?
A: Its EC50 is greater than 2500 nM.

Q: What about the “HuH7 Growth, dose-response point” value ([5]; Log[inhibitor] (M) -5.602) of the same compound?
A: The value was 6.24E+01 and 5.40E+01 and 5.94E+01.

Q: What about the “HuH7 Growth, dose-response point” value ([5]; Log[inhibitor] (M) -6.000) of the same compound?
A: Its value is 6.34E+01 and 6.90E+01 and 6.75E+01.

Q: And the “HuH7 Growth, dose-response point” value ([5]; Log[inhibitor] (M) -6.301)?
A: Its value is 6.99E+01 and 7.05E+01 and 6.37E+01.

Q: What about the “HuH7 Growth, dose-response point” value ([5]; Log[inhibitor] (M) -6.602) of the same compound?
A: The value was 7.89E+01 and 8.13E+01 and 7.81E+01.

Q: What about the “HuH7 Growth, dose-response point” value ([5]; Log[inhibitor] (M) -7.602) of the same compound?
A: The value was 9.65E+01 and 1.01E+02 and 8.52E+01.

Q: And the “HuH7 Growth, dose-response point” value ([5]; Log[inhibitor] (M) -8.602)?
A: The value was 9.96E+01 and 1.08E+02 and 9.36E+01.

Q: What about the “HuH7 Growth, dose-response point” value ([5]; Log[inhibitor] (M) -9.602) of the same compound?
A: The value was 1.01E+02 and 1.06E+02 and 1.03E+02.

Q: And the “HuH7 Growth, dose-response point” value ([5]; Log[inhibitor] (M) -9.903)?
A: Its value is 1.05E+02 and 1.11E+02 and 1.08E+02.

Q: What about the “resistance to NCP26 after selection” value ([6]; >50 generations (100 days), 2 out of 3 selections) of the same compound?
A: Its value is 20-to-80 fold.

Q: And the “generations until resistance arises” value ([6]; intermittent drug pressure)?
A: The value was greater than 50 generations.
